From ChEMBL document CHEMBL5518206, “Hit-to-Lead Identification and Validation of a Triaromatic Pleuromutilin Antibiotic Candidate” (J Med Chem, 2024)
Active and inactive are the calls of the source. No cut-off for these calls is given here.

Tests used:
Staphylococcus aureus [1] = experiment: (§1) Induction of resistant development in -(6-(6-(Piperazin-1-y1)-9H-purin-9-y)methyl)pyridin-3-y1)-1H-1,2,3-triazol-1-yl)-22-deoxypleuromutilin-16 passages resistance developed Staphylococcus aureus USA300 FPR3757 assessed as fold increase in MIC at sub-MIC concentration measured after 18 passages with conjugate by serial passage assay; assay type: functional
[2] = target: ATP-dependent translocase ABCB1 (Homo sapiens, UniProt P08183); experiment: Inhibition of P-gp in human Caco-2 cells using digoxin as substrate; assay type: cell-based
ATP-dependent translocase ABCB1, sequence (P08183 whole entry): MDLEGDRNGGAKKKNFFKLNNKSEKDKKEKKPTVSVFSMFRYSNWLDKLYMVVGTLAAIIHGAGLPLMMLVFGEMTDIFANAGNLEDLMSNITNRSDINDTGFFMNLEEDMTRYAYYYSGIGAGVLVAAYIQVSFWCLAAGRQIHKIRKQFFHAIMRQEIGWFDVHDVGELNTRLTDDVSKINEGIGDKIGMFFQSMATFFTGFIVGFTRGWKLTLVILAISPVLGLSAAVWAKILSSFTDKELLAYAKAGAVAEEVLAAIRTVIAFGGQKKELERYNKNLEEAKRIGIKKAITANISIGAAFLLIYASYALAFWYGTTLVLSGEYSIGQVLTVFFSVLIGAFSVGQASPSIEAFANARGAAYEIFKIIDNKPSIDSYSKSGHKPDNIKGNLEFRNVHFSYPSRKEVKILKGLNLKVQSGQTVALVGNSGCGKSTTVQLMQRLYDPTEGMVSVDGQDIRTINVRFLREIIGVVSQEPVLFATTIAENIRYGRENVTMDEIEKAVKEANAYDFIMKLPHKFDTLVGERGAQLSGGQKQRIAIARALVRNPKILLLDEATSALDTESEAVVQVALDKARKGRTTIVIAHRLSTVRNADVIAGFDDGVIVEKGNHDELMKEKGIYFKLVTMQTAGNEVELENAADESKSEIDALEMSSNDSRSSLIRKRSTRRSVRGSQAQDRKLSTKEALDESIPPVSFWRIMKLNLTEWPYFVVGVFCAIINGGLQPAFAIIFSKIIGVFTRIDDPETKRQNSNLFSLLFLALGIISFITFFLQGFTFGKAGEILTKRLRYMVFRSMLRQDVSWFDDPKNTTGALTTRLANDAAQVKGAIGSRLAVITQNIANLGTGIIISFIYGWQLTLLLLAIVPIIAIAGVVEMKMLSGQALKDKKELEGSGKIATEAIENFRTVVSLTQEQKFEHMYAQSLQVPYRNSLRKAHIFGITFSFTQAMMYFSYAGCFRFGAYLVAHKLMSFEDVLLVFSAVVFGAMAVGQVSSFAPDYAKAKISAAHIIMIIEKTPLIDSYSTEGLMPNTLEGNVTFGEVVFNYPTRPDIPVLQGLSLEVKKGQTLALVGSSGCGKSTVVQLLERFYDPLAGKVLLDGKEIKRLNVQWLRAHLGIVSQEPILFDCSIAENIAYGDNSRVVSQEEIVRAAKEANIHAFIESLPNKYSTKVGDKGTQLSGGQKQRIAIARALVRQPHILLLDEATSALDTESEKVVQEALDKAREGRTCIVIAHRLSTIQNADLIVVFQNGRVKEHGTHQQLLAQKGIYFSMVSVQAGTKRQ

Staphylococcus aureus [3] = experiment: as §1, with “5” for “18”; assay type: functional
Staphylococcus aureus [4] = experiment: Induction of resistant development in lefamulin 5 passages resistance developed Staphylococcus aureus USA300 FPR3757 assessed as fold increase in MIC at sub-MIC concentration measured after 28 passages with conjugate by serial passage assay; assay type: functional
[5] = system: Staphylococcus epidermidis; experiment: Antibacterial activity against Staphylococcus epidermidis assessed as inhibition of visible growth incubated for 20 to 24 hrs by microbroth serial dilution assay; assay type: functional, organism-based; details: time 20-24 hrs
Staphylococcus aureus [6] = experiment: Induction of resistant development in linezolid 5 passages resistance developed Staphylococcus aureus USA300 FPR3757 assessed as fold increase in MIC at sub-MIC concentration measured after 25 passages with conjugate by serial passage assay; assay type: functional
[7] = target: Voltage-gated inwardly rectifying potassium channel KCNH2 (Homo sapiens, UniProt Q12809); experiment: Inhibition of K+ ion channel activity of hERG; assay type: toxicity
Voltage-gated inwardly rectifying potassium channel KCNH2, sequence (Q12809 whole entry): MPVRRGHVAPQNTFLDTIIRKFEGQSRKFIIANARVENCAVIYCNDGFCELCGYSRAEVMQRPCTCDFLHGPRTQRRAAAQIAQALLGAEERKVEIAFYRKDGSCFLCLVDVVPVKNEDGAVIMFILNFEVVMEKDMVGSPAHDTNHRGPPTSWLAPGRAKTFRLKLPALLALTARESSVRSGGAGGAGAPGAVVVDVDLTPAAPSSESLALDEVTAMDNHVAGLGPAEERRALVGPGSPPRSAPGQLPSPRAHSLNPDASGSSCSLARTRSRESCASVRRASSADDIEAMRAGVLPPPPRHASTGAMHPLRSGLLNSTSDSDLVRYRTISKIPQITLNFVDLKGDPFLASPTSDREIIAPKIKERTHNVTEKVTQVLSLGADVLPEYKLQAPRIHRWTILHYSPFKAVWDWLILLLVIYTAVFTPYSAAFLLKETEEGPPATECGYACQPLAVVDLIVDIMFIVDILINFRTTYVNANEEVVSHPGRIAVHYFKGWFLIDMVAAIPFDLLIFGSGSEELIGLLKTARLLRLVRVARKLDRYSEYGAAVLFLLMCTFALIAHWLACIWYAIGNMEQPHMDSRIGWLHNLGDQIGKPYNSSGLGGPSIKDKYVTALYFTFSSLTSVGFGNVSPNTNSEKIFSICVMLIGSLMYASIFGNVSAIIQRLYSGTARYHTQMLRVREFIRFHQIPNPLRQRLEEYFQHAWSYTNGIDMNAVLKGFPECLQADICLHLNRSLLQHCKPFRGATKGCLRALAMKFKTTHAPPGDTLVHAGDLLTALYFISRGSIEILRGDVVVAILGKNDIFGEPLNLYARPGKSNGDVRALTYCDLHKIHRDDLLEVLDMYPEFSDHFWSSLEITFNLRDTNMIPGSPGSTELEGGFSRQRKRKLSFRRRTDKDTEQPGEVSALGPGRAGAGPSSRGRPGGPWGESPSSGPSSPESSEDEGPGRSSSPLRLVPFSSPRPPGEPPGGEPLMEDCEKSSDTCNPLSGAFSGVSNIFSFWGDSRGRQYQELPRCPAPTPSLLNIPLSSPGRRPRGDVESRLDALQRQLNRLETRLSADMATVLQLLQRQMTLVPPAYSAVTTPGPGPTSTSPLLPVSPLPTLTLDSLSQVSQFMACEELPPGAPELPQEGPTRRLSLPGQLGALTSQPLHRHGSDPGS

[8] = Efflux ratio of apparent permeability from basolateral to apical side over apical to basolateral side in human Caco-2 cells at 10 uM; assay type: ADME, cell-based
Staphylococcus aureus [9] = experiment: as §1, with “22” for “18”; assay type: functional
Staphylococcus aureus [10] = experiment: Induction of resistant development in lefamulin 5 passages resistance developed Staphylococcus aureus USA300 FPR3757 assessed as fold increase in MIC at sub-MIC concentration measured after 5 passages with conjugate by serial passage assay; assay type: functional
Staphylococcus aureus [11] = experiment: Induction of resistant development in lefamulin 5 passages resistance developed Staphylococcus aureus USA300 FPR3757 assessed as fold increase in MIC at sub-MIC concentration measured after 9 passages with conjugate by serial passage assay; assay type: functional
[12] = Tmax in NMRI female mouse at 30 mg/kg, po by HPLC analysis; assay type: ADME, organism-based; details: in vivo
[13] = Tmax in NMRI female mouse at 60 mg/kg, sc by HPLC analysis; assay type: ADME, organism-based; details: in vivo
[14] = Clearance in pig plasma at 10 mg/kg, po measured upto 240 mins by LC-MS/MS analysis; assay type: ADME, organism-based, Sus scrofa
[15] = AUC (0 to infinity) in pig plasma at 3 mg/kg, iv measured upto 240 mins by LC-MS/MS analysis; assay type: ADME, organism-based, Sus scrofa; details: in vivo, 4 h
[16] = Elimination rate constant in pig plasma at 10 mg/kg, po measured upto 240 mins by LC-MS/MS analysis; assay type: ADME, organism-based, Sus scrofa
[17] = Elimination rate constant in pig urine at 10 mg/kg, po measured upto 240 mins by LC-MS/MS analysis; assay type: ADME, organism-based, Sus scrofa
[18] = Tmax in NMRI female mouse at 20 mg/kg, sc by HPLC analysis; assay type: ADME, organism-based; details: in vivo
[19] = Cmax in NMRI female mouse at 30 mg/kg, po by HPLC analysis; assay type: ADME, organism-based; details: in vivo
[20] = Tmax in pig urine at 3 mg/kg, iv measured upto 240 mins by LC-MS/MS analysis; assay type: ADME, organism-based, Sus scrofa
[21] = Tmax in pig plasma at 10 mg/kg, po measured upto 240 mins by LC-MS/MS analysis; assay type: ADME, organism-based, Sus scrofa
[22] = Half life in NMRI female mouse at 30 mg/kg, iv by HPLC analysis; assay type: ADME, organism-based; details: in vivo
[23] = Plasma Concentration in pig at 3 mg/kg, iv measured upto 240 mins by LC-MS/MS analysis; assay type: ADME, organism-based, Sus scrofa
[24] = Half life in NMRI female mouse at 20 mg/kg, sc by HPLC analysis; assay type: ADME, organism-based; details: in vivo
[25] = Tmax in pig plasma at 3 mg/kg, iv measured upto 240 mins by LC-MS/MS analysis; assay type: ADME, organism-based, Sus scrofa

Work on `C=C[C@]1(C)C[C@@H](OC(=O)CS[C@@H]2CC[C@@H](N)C[C@H]2O)[C@]2(C)[C@H](C)CC[C@]3(CCC(=O)[C@H]32)[C@@H](C)[C@@H]1O` [LEFAMULIN] yielded a fold change (FC) (Staphylococcus aureus [1]) of 32, an IC50 [2] of 34.1 µM and a fold change (FC) (Staphylococcus aureus [3]) of 8. The fold change (FC) (Staphylococcus aureus [4]) was 128, the Activity [5] was “inactive” and the fold change (FC) (Staphylococcus aureus [6]) was 32. The IC50 [7] was 78.2 µM, the efflux ratio at 10 µM [8] was 68 and the fold change (FC) (Staphylococcus aureus [9]) was 32. For the same compound, the fold change (FC) (Staphylococcus aureus [10]) was 4 and the fold change (FC) (Staphylococcus aureus [11]) was 16.

For `C=C[C@]1(C)C[C@@H](OC(=O)Cn2cc(-c3ccc(Cn4cnc5c(N6CCNCC6)ncnc54)nc3)nn2)[C@]2(C)[C@H](C)CC[C@]3(CCC(=O)[C@H]32)[C@@H](C)[C@@H]1O`, the Tmax [12] was 15 min, the Tmax [13] was 15 min and the CL/F [14] was 1420 mL/min/kg. For the same compound, the AUC [15] was 35.5 µg/mL/min, the k el at 4 h [16] was 0.000518 s⁻¹ and the k el at 4 h [17] was 8.67e-05 s⁻¹. The Tmax [18] was 15 min, the Cmax [19] was 8.2 ng/mL and the Tmax [20] was 60 min. For the same compound, the Tmax [21] was 15 min, the half-life [22] was 52.8 min and the concentration at 4 h [23] was 866 ng/mL. For the same compound, the half-life [24] was 124 min and the Tmax [25] was 0 h.
